Data as given in patent US7261906B2, “Anti-cancer therapy agent of arsenic hexoxide (As4O6) of a natural chemical substance and its pharmaceutical composition” (priority 1998, dated 2007).

Assay: Acute toxicity, single oral administration
Type: in vivo, Rats (Sprague Dawley strain)
Settings: for Mortality, Days after treatment 1 / Mortality, Days after treatment 2 / Mortality, Days after treatment 3 / Mortality, Days after treatment 4 / Mortality, Days after treatment 5 / Mortality, Days after treatment 6 / Mortality, Days after treatment 7 / Mortality, Days after treatment 8 / Mortality, Days after treatment 9 / Mortality, Days after treatment 10 / Mortality, Days after treatment 11 / Mortality, Days after treatment 12 / Mortality, Days after treatment 13 / Mortality, Days after treatment 14 / Mortality, Hours after treatment 1 / Mortality, Hours after treatment 2 / Mortality, Hours after treatment 3 / Mortality, Hours after treatment 4 / Mortality, Hours after treatment 5 / Mortality, Hours after treatment 6 / Final mortality / Final mortality (dead/total): Female; for Final mortality / Final mortality (dead/total): 14 days; for LD50 (50% Lethal Dose): oral administration
Experimental: The acute toxicity of oral administration of HD-2 was evaluated according to toxicity assessment criteria described in Article 96-8 of Notice on Food and Drug Safety (Apr. 16, 1994). Rats (Sprague Dawley strain) were used for animal experiments. Dosage of a single, oral administration ranged from 0.4 to 1.25 g/kg body weight in male rats and 0.4 to […] body weight in female rats. General conditions of the animals, toxic symptoms, and mortality were measured every hour for the initial 6 hours following the single administration and once a day afterwards for 14 days. Body weights were measured before starting the study, 7 days after the administration, and at autopsy. Expired rats were studied to find the cause of death at autopsy. […] Some rats manifesting these clinical symptoms expired, but others recovered to normal condition within 2 to 3 days of clinical symptoms.

O1[As]2O[As]3O[As]1O[As](O2)O3 [HD-2, arsenic hexoxide (As4O6)]
Mortality, Days after treatment 1 (0.4 g/kg B.W. oral): 0
Mortality, Days after treatment 2 (0.4 g/kg B.W. oral): 0
Mortality, Days after treatment 3 (0.4 g/kg B.W. oral): 0
Mortality, Days after treatment 4 (0.4 g/kg B.W. oral): 0
Mortality, Days after treatment 5 (0.4 g/kg B.W. oral): 0
Mortality, Days after treatment 6 (0.4 g/kg B.W. oral): 0
Mortality, Days after treatment 7 (0.4 g/kg B.W. oral): 0
Mortality, Days after treatment 8 (0.4 g/kg B.W. oral): 0
Mortality, Days after treatment 9 (0.4 g/kg B.W. oral): 0
Mortality, Days after treatment 10 (0.4 g/kg B.W. oral): 0
Mortality, Days after treatment 11 (0.4 g/kg B.W. oral): 0
Mortality, Days after treatment 12 (0.4 g/kg B.W. oral): 0
Mortality, Days after treatment 13 (0.4 g/kg B.W. oral): 0
Mortality, Days after treatment 14 (0.4 g/kg B.W. oral): 0
Mortality, Hours after treatment 1 (0.4 g/kg B.W. oral): 0
Mortality, Hours after treatment 2 (0.4 g/kg B.W. oral): 0
Mortality, Hours after treatment 3 (0.4 g/kg B.W. oral): 0
Mortality, Hours after treatment 4 (0.4 g/kg B.W. oral): 0
Mortality, Hours after treatment 5 (0.4 g/kg B.W. oral): 0
Mortality, Hours after treatment 6 (0.4 g/kg B.W. oral): 0
Final mortality (0.4 g/kg B.W. oral): 0%
Final mortality (dead/total) (0.4 g/kg B.W. oral): 0/5
Mortality, Days after treatment 1 (0.5 g/kg B.W. oral): 0
Mortality, Days after treatment 2 (0.5 g/kg B.W. oral): 0
Mortality, Days after treatment 3 (0.5 g/kg B.W. oral): 0
Mortality, Days after treatment 4 (0.5 g/kg B.W. oral): 0
Mortality, Days after treatment 5 (0.5 g/kg B.W. oral): 0
Mortality, Days after treatment 6 (0.5 g/kg B.W. oral): 0
Mortality, Days after treatment 7 (0.5 g/kg B.W. oral): 0
Mortality, Days after treatment 8 (0.5 g/kg B.W. oral): 0
Mortality, Days after treatment 9 (0.5 g/kg B.W. oral): 0
Mortality, Days after treatment 10 (0.5 g/kg B.W. oral): 0
Mortality, Days after treatment 11 (0.5 g/kg B.W. oral): 0
Mortality, Days after treatment 12 (0.5 g/kg B.W. oral): 0
Mortality, Days after treatment 13 (0.5 g/kg B.W. oral): 0
Mortality, Days after treatment 14 (0.5 g/kg B.W. oral): 0
Mortality, Hours after treatment 1 (0.5 g/kg B.W. oral): 0
Mortality, Hours after treatment 2 (0.5 g/kg B.W. oral): 0
Mortality, Hours after treatment 3 (0.5 g/kg B.W. oral): 0
Mortality, Hours after treatment 4 (0.5 g/kg B.W. oral): 0
Mortality, Hours after treatment 5 (0.5 g/kg B.W. oral): 0
Mortality, Hours after treatment 6 (0.5 g/kg B.W. oral): 0
Final mortality (0.5 g/kg B.W. oral): 0%
Final mortality (dead/total) (0.5 g/kg B.W. oral): 0/5
Mortality, Days after treatment 1 (0.58 g/kg B.W. oral): 1
Mortality, Days after treatment 2 (0.58 g/kg B.W. oral): 1
Mortality, Days after treatment 3 (0.58 g/kg B.W. oral): 0
Mortality, Days after treatment 4 (0.58 g/kg B.W. oral): 0
Mortality, Days after treatment 5 (0.58 g/kg B.W. oral): 0
Mortality, Days after treatment 6 (0.58 g/kg B.W. oral): 0
Mortality, Days after treatment 7 (0.58 g/kg B.W. oral): 0
Mortality, Days after treatment 8 (0.58 g/kg B.W. oral): 0
Mortality, Days after treatment 9 (0.58 g/kg B.W. oral): 0
Mortality, Days after treatment 10 (0.58 g/kg B.W. oral): 0
Mortality, Days after treatment 11 (0.58 g/kg B.W. oral): 0
Mortality, Days after treatment 12 (0.58 g/kg B.W. oral): 0
Mortality, Days after treatment 13 (0.58 g/kg B.W. oral): 0
Mortality, Days after treatment 14 (0.58 g/kg B.W. oral): 0
Mortality, Hours after treatment 1 (0.58 g/kg B.W. oral): 0
Mortality, Hours after treatment 2 (0.58 g/kg B.W. oral): 0
Mortality, Hours after treatment 3 (0.58 g/kg B.W. oral): 0
Mortality, Hours after treatment 4 (0.58 g/kg B.W. oral): 0
Mortality, Hours after treatment 5 (0.58 g/kg B.W. oral): 0
Mortality, Hours after treatment 6 (0.58 g/kg B.W. oral): 0
Final mortality (0.58 g/kg B.W. oral): 40%
Final mortality (dead/total) (0.58 g/kg B.W. oral): 2/5
Mortality, Days after treatment 1 (0.62 g/kg B.W. oral): 3
Mortality, Days after treatment 2 (0.62 g/kg B.W. oral): 1
Mortality, Days after treatment 3 (0.62 g/kg B.W. oral): 0
Mortality, Days after treatment 4 (0.62 g/kg B.W. oral): 0
Mortality, Days after treatment 5 (0.62 g/kg B.W. oral): 0
Mortality, Days after treatment 6 (0.62 g/kg B.W. oral): 0
Mortality, Days after treatment 7 (0.62 g/kg B.W. oral): 0
Mortality, Days after treatment 8 (0.62 g/kg B.W. oral): 0
Mortality, Days after treatment 9 (0.62 g/kg B.W. oral): 0
Mortality, Days after treatment 10 (0.62 g/kg B.W. oral): 0
Mortality, Days after treatment 11 (0.62 g/kg B.W. oral): 0
Mortality, Days after treatment 12 (0.62 g/kg B.W. oral): 0
Mortality, Days after treatment 13 (0.62 g/kg B.W. oral): 0
Mortality, Days after treatment 14 (0.62 g/kg B.W. oral): 0
Mortality, Hours after treatment 1 (0.62 g/kg B.W. oral): 0
Mortality, Hours after treatment 2 (0.62 g/kg B.W. oral): 0
Mortality, Hours after treatment 3 (0.62 g/kg B.W. oral): 0
Mortality, Hours after treatment 4 (0.62 g/kg B.W. oral): 0
Mortality, Hours after treatment 5 (0.62 g/kg B.W. oral): 0
Mortality, Hours after treatment 6 (0.62 g/kg B.W. oral): 0
Final mortality (0.62 g/kg B.W. oral): 80%
Final mortality (dead/total) (0.62 g/kg B.W. oral): 4/5
Mortality, Days after treatment 1 (0.625 g/kg B.W. oral): 1
Mortality, Days after treatment 2 (0.625 g/kg B.W. oral): 0
Mortality, Days after treatment 3 (0.625 g/kg B.W. oral): 0
Mortality, Days after treatment 4 (0.625 g/kg B.W. oral): 0
Mortality, Days after treatment 5 (0.625 g/kg B.W. oral): 0
Mortality, Days after treatment 6 (0.625 g/kg B.W. oral): 0
Mortality, Days after treatment 7 (0.625 g/kg B.W. oral): 0
Mortality, Days after treatment 8 (0.625 g/kg B.W. oral): 0
Mortality, Days after treatment 9 (0.625 g/kg B.W. oral): 0
Mortality, Days after treatment 10 (0.625 g/kg B.W. oral): 0
Mortality, Days after treatment 11 (0.625 g/kg B.W. oral): 0
Mortality, Days after treatment 12 (0.625 g/kg B.W. oral): 0
Mortality, Days after treatment 13 (0.625 g/kg B.W. oral): 0
Mortality, Days after treatment 14 (0.625 g/kg B.W. oral): 0
Mortality, Hours after treatment 1 (0.625 g/kg B.W. oral): 0
Mortality, Hours after treatment 2 (0.625 g/kg B.W. oral): 0
Mortality, Hours after treatment 3 (0.625 g/kg B.W. oral): 0
Mortality, Hours after treatment 4 (0.625 g/kg B.W. oral): 0
Mortality, Hours after treatment 5 (0.625 g/kg B.W. oral): 0
Mortality, Hours after treatment 6 (0.625 g/kg B.W. oral): 0
Final mortality (0.625 g/kg B.W. oral): 100%
Final mortality (dead/total) (0.625 g/kg B.W. oral): 5/5
Changes in weight vs control group (all subgroups of different dosages): did not show any significant difference
LD50 (50% Lethal Dose) (female rats): 0.58 g/kg body weight
LD50 (50% Lethal Dose) (male rats): 0.81 g/kg body weight
